Test results reported in patent US8937176B2, “Compounds” (Boehringer Ingelheim International GmbH, priority 2011, dated 2015).
pEC50: −log10 of the molar value.

The molecules below were run against T1, human recombinant mGluR5 (Homo sapiens, UniProt P41594) (assay: Positive modulation of mGluR5, calcium based FLIPR assay in HEK 293 cells). Settings: EC50 of the modulation; HEK 293 cell line expressing human recombinant mGluR5; glutamate at approximately 5% basal stimulation; peak height of Ca release fluorescence signal.
T1 construct: expressed in transfected cells; host or cells: HEK 293 cell line
T1 sequence (P41594 21-1212): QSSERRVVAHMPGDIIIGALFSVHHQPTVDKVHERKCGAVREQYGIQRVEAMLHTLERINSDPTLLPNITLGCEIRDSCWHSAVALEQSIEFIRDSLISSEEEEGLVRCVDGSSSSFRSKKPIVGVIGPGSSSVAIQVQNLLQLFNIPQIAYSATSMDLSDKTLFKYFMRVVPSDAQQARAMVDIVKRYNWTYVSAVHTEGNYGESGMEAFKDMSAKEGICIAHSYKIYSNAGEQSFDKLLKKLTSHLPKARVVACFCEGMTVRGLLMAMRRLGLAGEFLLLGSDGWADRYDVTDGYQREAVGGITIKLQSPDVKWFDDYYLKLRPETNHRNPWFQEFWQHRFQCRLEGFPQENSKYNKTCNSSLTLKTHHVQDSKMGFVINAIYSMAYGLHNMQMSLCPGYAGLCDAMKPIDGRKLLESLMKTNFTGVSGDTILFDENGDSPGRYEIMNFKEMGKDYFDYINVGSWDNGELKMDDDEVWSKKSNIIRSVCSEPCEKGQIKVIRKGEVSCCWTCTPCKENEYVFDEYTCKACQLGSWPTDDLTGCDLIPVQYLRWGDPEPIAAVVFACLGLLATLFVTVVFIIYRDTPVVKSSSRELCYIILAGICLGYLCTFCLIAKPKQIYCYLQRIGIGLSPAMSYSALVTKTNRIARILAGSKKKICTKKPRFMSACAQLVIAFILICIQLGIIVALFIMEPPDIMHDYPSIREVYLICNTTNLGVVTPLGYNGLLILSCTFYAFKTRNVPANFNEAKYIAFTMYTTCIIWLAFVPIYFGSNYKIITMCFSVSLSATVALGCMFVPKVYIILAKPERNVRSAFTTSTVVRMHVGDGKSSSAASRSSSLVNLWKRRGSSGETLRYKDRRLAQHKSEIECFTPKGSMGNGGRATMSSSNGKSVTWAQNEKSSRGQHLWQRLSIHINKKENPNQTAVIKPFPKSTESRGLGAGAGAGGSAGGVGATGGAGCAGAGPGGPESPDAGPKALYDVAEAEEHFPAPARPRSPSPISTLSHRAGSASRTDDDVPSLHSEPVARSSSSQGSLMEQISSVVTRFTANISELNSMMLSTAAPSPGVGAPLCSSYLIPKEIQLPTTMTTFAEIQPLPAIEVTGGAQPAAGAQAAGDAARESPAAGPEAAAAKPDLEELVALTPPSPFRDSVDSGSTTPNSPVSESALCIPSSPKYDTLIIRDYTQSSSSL
Description: The positive modulation of mGluR5 is measured in a HEK 293 cell line expressing human recombinant mGluR5 and is detected with calcium based FLIPR assay. The cells are cultured with DMEM supplemented with 10% FCS, 2 μg/mL tetracycline, 100 μg/mL hygromycin and 500 μg/mL gneticin. The cell culture media is exchanged for tetracycline-free cell culture media 3-7 days before the assay. One day before the assay the cell culture medium is exchanged to DMEM without glutamine and phenol red and supplemented with 10% FCS, 100 μg/mL hygromycin and 500 μg/mL geneticin. On the assay day, the medium of the subconfluent cultures is removed and the cells are detached by addition of 2.5 ml EDTA(0.02%) per 175 cm2 culture flask for 1 minute. The cells are resuspend in Ringer solution (140 mM NaCl, 5 mM KCl, 2.5 mM CaCl2, 1.5 mM MgCl2, 5 mM Glucose, 10 mM Hepes; adjusted to pH 7.4 with NaOH), pooled and Ringer solution added to adjust the volume to 50 mL. The cell suspension is centrifuged for […] at 1500 U/min (425 g). The supernatant is removed and the cells washed a second time with 50 ml fresh Ringer solution and centrifuged again as before. The supernatant is again removed and the pellet resuspended in Ringer solution to 1,000,000 cells/ml (1×10^6 cells/mL). The cells are plated onto BD BioCoat Poly-D-Lysine 384 well plates (20.000 cells/well; 20 μl/well). The lid covered plates are then incubated until use at 37° C./10% CO2. For dye loading, 20 μl of Calcium-4 assay kit solution (prepared according to the manufacturer's description in Ringer solution) are added to the cells and the plates are incubated for 80 min 37° C. and then 10 min at room temperature.
Controls, Compound Dilution and Assay Execution:
Each assay plate contained wells with “high” and “low” controls:
Low controls 1% DMSO/ringer solution+basal glutamate activation (defined as 100% CTL).
High controls 10 μM CDPPB+basal glutamate activation (defined as 200% CTL).
Test compounds are dissolved and diluted in DMSO to 100-fold the desired concentrations. In a second step, the compounds are diluted in Ringer solution such that the compounds are 4-fold more concentrated than the desired final assay concentration. The final DMSO concentration was 1%.
20 μl of each compound solution are then transferred to the assay plate and the Ca2+ kinetic is measured to determine any intrinsic compound activity. After 5 min incubation in the FLIPR device, the second stimulation with 20 μl of glutamate in Ringer solution (glutamate concentration adjusted to approximately 5% basal stimulation of the maximal possible glutamate effect) is added and the kinetic Ca2+ response of the wells was measured for the modulation effect.
The peak height of the Ca release related fluorescence signal (9-66) is used for the EC50. The EC50 of the modulation is calculated over a nonlinear regression with GraphPad Prism (Table 1).
For `Cc1ccc(-c2cn(-c3ccc(F)cc3)c(CC(=O)N3CCN(c4ccccn4)CC3)n2)cc1` [Example 7.04.06.], the pEC50 was 7.44. `Cc1cc(-c2cn(-c3ccc(F)cc3)c(CC(=O)N3CCN(c4ncccn4)CC3)n2)ccc1Cl` [Example 7.04.17.] showed a pEC50 of 7.68. In the case of `Cc1cc(-c2cn(-c3ccccc3)c(CC(=O)N3CCN(c4ccccn4)CC3)n2)ccc1F` [Example 7.04.42.], the pEC50 was 7.62. `O=C(Cc1nc(-c2ccc(F)cc2)cn1-c1ccc(F)cc1)N1CCN(c2ncccn2)CC1` [Example 7.01.02.] gave a pEC50 of 7.37. `COc1cc(N2CCN(C(=O)Cc3nc(-c4ccc(C)cc4)cn3-c3ccc(F)cc3)CC2)ncn1` [Example 7.04.07.] was tested, and the pEC50 was 6.94. Work on `Cc1cc(-c2cn(-c3ccc(F)cc3)c(CC(=O)N3CCN(c4ncccn4)CC3)n2)ccc1F` [Example 7.04.25.] yielded a pEC50 of 7.68. `Cc1cc(-c2cn(-c3ccc(F)cc3)c(CC(=O)N3CCN(c4ncncn4)CC3)n2)ccc1Cl` [Example 7.04.22.] showed a pEC50 of 7.46. In the case of `COc1cc(N2CCN(C(=O)Cc3nc(-c4ccc(Cl)c(C)c4)cn3-c3ccc(F)cc3)CC2)ncn1` [Example 7.04.21.], the pEC50 was 6.94. In the case of `COc1cnc(N2CCN(C(=O)Cc3nc(-c4ccc(F)c(C)c4)cn3-c3ccccc3)CC2)nc1` [Example 7.04.46.], the pEC50 was 7.68. Work on `COc1ccc(-c2cn(-c3ccccc3)c(CC(=O)N3CCN(c4cc(OC)ncn4)CC3)n2)cc1` [Example 7.04.29.] yielded a pEC50 of 6.92. Molecule `COc1ccnc(N2CCN(C(=O)Cc3nc(-c4ccc(C)cc4)cn3-c3ccc(F)cc3)CC2)c1` [Example 7.04.05.] has a pEC50 of 7.38. With `COc1ccnc(N2CCN(C(=O)Cc3nc(-c4ccc(F)c(C)c4)cn3-c3ccccc3)CC2)c1` [Example 7.04.45.] the pEC50 was 7.55. With `Cc1cc(-c2cn(-c3ccc(F)cc3)c(CC(=O)N3CCN(c4cccnn4)CC3)n2)ccc1Cl` [Example 7.04.19.] the pEC50 was 7.89. With `Cc1ccc(-n2cc(-c3ccccc3)nc2CC(=O)N2CCN(c3ncccn3)CC2)cc1` [Example 7.01.04.] the pEC50 was 6.68. In the case of `COc1ccc(-c2cn(-c3ccccc3)c(CC(=O)N3CCN(c4ccccn4)CC3)n2)cc1` [Example 7.04.30.], the pEC50 was 6.72. For `COc1cccc(-c2cn(-c3ccc(F)cc3)c(CC(=O)N3CCN(c4cc(OC)ccn4)CC3)n2)c1` [Example 7.04.39.], the pEC50 was 6.97. With `COc1cnc(N2CCN(C(=O)Cc3nc(-c4ccc(C)cc4)cn3-c3ccc(F)cc3)CC2)nc1` [Example 7.04.09.] the pEC50 was 7.70. `O=C(Cc1nc(-c2ccc(F)cc2)cn1-c1ccc(F)cc1)N1CCN(c2cccnn2)CC1` [Example 7.03.02.] gave a pEC50 of 6.95. `CCn1cc(-c2ccc(F)c(C)c2)nc1CC(=O)N1CCN(c2ncccn2)CC1` [Example 7.05.01, 2-(1-Ethyl-4-(4-fluoro-3-methyl-phenyl)-1H-imidazol-2-yl)-1-(4-pyrimidin-2-yl-piperazin-1-yl)-ethanone] was tested, and the pEC50 was 6.76. `O=C(Cc1nc(-c2ccc(F)cc2)cn1-c1ccc(F)cc1)N1CCN(c2ccccn2)CC1` [Example 7.02.01., 2-(1,4-Bis-(4-fluoro-phenyl)-1H-imidazol-2-yl)-1-(4-pyridin-2-yl-piperazin-1-yl)-ethanonene] was tested, and the pEC50 was 7.27. Work on `COc1ccc(-c2cn(-c3ccccc3)c(CC(=O)N3CCN(c4cc(OC)ccn4)CC3)n2)cc1` [Example 7.04.31.] yielded a pEC50 of 6.84. `COc1ccnc(N2CCN(C(=O)Cc3nc(-c4ccc(F)cc4)cn3-c3ccc(F)cc3)CC2)c1` [Example 7.03.01., 2-(1,4-Bis-(4-fluoro-phenyl)-1H-imidazol-2-yl)-1-(4-(4-methoxy-pyridin-2-yl)-piperazin-1-yl)-ethanone] showed a pEC50 of 7.24. Molecule `COc1cccc(-c2cn(-c3ccc(F)cc3)c(CC(=O)N3CCN(c4ccccn4)CC3)n2)c1` [Example 7.04.41.] has a pEC50 of 7.04. Molecule `COc1ccc(-c2cn(-c3ccc(F)cc3)c(CC(=O)N3CCN(c4cccnn4)CC3)n2)cc1` [Example 7.04.11.] has a pEC50 of 7.40. `O=C(Cc1nc(-c2ccccc2)cn1-c1ccccc1)N1CCN(c2ncccn2)CC1` [Example 7.01.01., 2-(1,4-diphenyl-1H-imidazol-2-yl)-1-(4-pyrimidin-2-yl-piperazin-1-yl)-ethanone] was tested, and the pEC50 was 6.81. With `COc1ccc(-c2cn(-c3ccc(F)cc3)c(CC(=O)N3CCN(c4ncc(F)cn4)CC3)n2)cc1` [Example 7.04.36.] the pEC50 was 7.24. Molecule `COc1ccc(-c2cn(-c3ccccc3)c(CC(=O)N3CCN(c4ncncn4)CC3)n2)cc1` [Example 7.04.32.] has a pEC50 of 6.55. In the case of `COc1ccc(-c2cn(-c3ccc(F)cc3)c(CC(=O)N3CCN(c4cc(OC)ccn4)CC3)n2)cc1` [Example 7.04.12.], the pEC50 was 7.40. `COc1cc(N2CCN(C(=O)Cc3nc(-c4ccc(F)cc4)cn3-c3ccc(F)cc3)CC2)ncn1` [Example 7.04.02.] was tested, and the pEC50 was 7.10. In the case of `COc1ccc(-c2cn(-c3ccc(F)cc3)c(CC(=O)N3CCN(c4ncc(OC)cn4)CC3)n2)cc1` [Example 7.04.16.], the pEC50 was 7.33. Work on `COc1cccc(-c2cn(-c3ccc(F)cc3)c(CC(=O)N3CCN(c4cc(OC)ncn4)CC3)n2)c1` [Example 7.04.38.] yielded a pEC50 of 6.97. Molecule `COc1ccc(-c2cn(-c3ccc(F)cc3)c(CC(=O)N3CCN(c4ncncn4)CC3)n2)cc1` [Example 7.04.15.] has a pEC50 of 7.04. With `COc1ccnc(N2CCN(C(=O)Cc3nc(-c4ccc(F)c(C)c4)cn3-c3ccc(F)cc3)CC2)c1` [Example 7.04.27.] the pEC50 was 7.36. With `COc1ccc(-c2cn(-c3ccc(F)cc3)c(CC(=O)N3CCN(c4ncccn4)CC3)n2)cc1` [Example 7.04.10.] the pEC50 was 7.70. `COc1ccc(-c2cn(-c3ccccc3)c(CC(=O)N3CCN(c4ncc(OC)cn4)CC3)n2)cc1` [Example 7.04.35.] showed a pEC50 of 7.12. For `COc1ccc(-c2cn(-c3ccc(OC)cc3)c(CC(=O)N3CCN(c4ncccn4)CC3)n2)cc1` [Example 7.01.03.], the pEC50 was 7.06. `Cc1cc(-c2cn(-c3ccc(F)cc3)c(CC(=O)N3CCN(c4ccccn4)CC3)n2)ccc1Cl` [Example 7.04.18.] showed a pEC50 of 7.52. `Cc1ccc(-c2cn(-c3ccc(F)cc3)c(CC(=O)N3CCN(c4ncncn4)CC3)n2)cc1` [Example 7.04.08.] gave a pEC50 of 7.39. In the case of `Cc1cc(-c2cn(-c3ccc(F)cc3)c(CC(=O)N3CCN(c4ccccn4)CC3)n2)ccc1F` [Example 7.04.23.], the pEC50 was 7.38. Work on `COc1ccc(-c2cn(-c3ccc(F)cc3)c(CC(=O)N3CCN(c4cc(OC)ncn4)CC3)n2)cc1` [Example 7.04.14.] yielded a pEC50 of 7.48. With `COc1ccnc(N2CCN(C(=O)Cc3nc(-c4ccc(Cl)c(C)c4)cn3-c3ccc(F)cc3)CC2)c1` [Example 7.04.20.] the pEC50 was 7.16. With `O=C(Cc1nc(-c2ccc(F)cc2)cn1-c1ccc(F)cc1)N1CCN(c2ncncn2)CC1` [Example 7.04.01., 2-(1,4-Bis-(4-fluoro-phenyl)-1H-imidazol-2-yl)-1-(4-[1,3,5]triazin-2-yl-piperazin-1-yl)-ethanone] the pEC50 was 7.28. `Cc1cc(-c2cn(-c3ccc(F)cc3)c(CC(=O)N3CCN(c4cccnn4)CC3)n2)ccc1F` [Example 7.04.24.] gave a pEC50 of 7.19. `COc1ccc(-c2cn(-c3ccccc3)c(CC(=O)N3CCN(c4ncc(F)cn4)CC3)n2)cc1` [Example 7.04.34.] gave a pEC50 of 7.02. In the case of `Cc1ccc(-c2cn(-c3ccc(F)cc3)c(CC(=O)N3CCN(c4ncccn4)CC3)n2)cc1` [Example 7.04.04.], the pEC50 was 7.74. Molecule `COc1cc(N2CCN(C(=O)Cc3nc(-c4ccc(F)c(C)c4)cn3-c3ccc(F)cc3)CC2)ncn1` [Example 7.04.26.] has a pEC50 of 7.39. `Cc1cc(-c2cn(-c3ccccc3)c(CC(=O)N3CCN(c4ncccn4)CC3)n2)ccc1F` [Example 7.04.44.] was tested, and the pEC50 was 7.96. `COc1ccc(-c2cn(-c3ccc(F)cc3)c(CC(=O)N3CCN(c4ccccn4)CC3)n2)cc1` [Example 7.04.13.] was tested, and the pEC50 was 7.43. `Cc1ccc(-c2cn(-c3ccc(F)cc3)c(CC(=O)N3CCN(c4cccnn4)CC3)n2)cc1` [Example 7.04.03.] was tested, and the pEC50 was 7.38. Molecule `COc1ccc(-c2cn(-c3ccccc3)c(CC(=O)N3CCN(c4ncccn4)CC3)n2)cc1` [Example 7.04.33.] has a pEC50 of 6.95. Molecule `COc1cccc(-c2cn(-c3ccc(F)cc3)c(CC(=O)N3CCN(c4ncncn4)CC3)n2)c1` [Example 7.04.40.] has a pEC50 of 6.84. `COc1cccc(-c2cn(-c3ccc(F)cc3)c(CC(=O)N3CCN(c4ncccn4)CC3)n2)c1` [Example 7.04.37.] was tested, and the pEC50 was 7.34.
